The results in this text go back to patent US5230802A, “Extraction process using a novel organic acid as a liquid ion exchanger” (Philip Morris Incorporated, priority 1992, dated 1993).

Structures are written as SMILES. Values joined by “and” are separate entries in the source; they are usually repeats but may differ in a detail not shown here. Identical values can stand only once. Like-named read-outs stand apart in the source and are kept apart here.

A short description of data set [1]: Organic phase/aqueous phase partition coefficient of nicotine in presence of LIX (Table I). The following applies: in words; for solubility of the nicotine-LIX complex: water versus hexane. Format: physicochemical. An excerpt: As hereinbefore disclosed, two different experimental criteria can be used to measure the capability of a LIX. First, the organic phase/water phase partition coefficient (PC) can be determined. The partition coefficient, as used herein, can be defined as the ratio of the amount of a substance dissolved in one phase in relation to the amount of the substance dissolved in the second phase. Accordingly, in determining the partition coefficient in the solvent extraction of nicotine from a tobacco processing fluid to another, the ratio would be the concentration of nicotine in the organic (extraction) phase divided by the concentration of nicotine in the aqueous (process) phase. If the partition coefficient increases, i.e., more of the nicotine is soluble in the organic phase, in the presence of a LIX, then this LIX meets one of the objectives for a successful nicotine transfer agent.
Table I is a presentation of the partition coefficients of various liquid ion exchangers, including control experiments where no LIX are utilized. […] Capabilities of the LIX as well as the components of the various phases must all be considered.

For data set [2] the following is noted: 2% LIX in Isopar K, 1.5 m2 PAN. From the text: (§1) The apparatus used is a Model MSX-750 laboratory unit purchased from Sepracor, Inc., Marlborough, Mass.; it is a 3-panel, 3-loop, 2-membrane operation. As shown in the Figure, each panel has a solvent circulation pump (1), pressure gauge, flow rotometer, and multiple valves for control of the solvent input and output (not shown). A separate pump controller (not shown) provides variable speed and on/off controls for all three panels. Analysis ports are built into the unit to allow pH readings at the feedstock (2)- and recovery panels (3)- and automatic pH titration at the recovery solution panel. Sample aliquots can be removed from all three system solvents in line (4)- or from the reservoirs (5). The membrane modules (6) contain a hollow fiber bundle in a plastic cartridge with connectors to allow flow through the hollow fibers (lumen) with one solvent and simultaneous flow around the fibers (shell) with an "exchanging" solvent (not shown). The membrane fibers used were either regenerated cellulose (RC) or polyacrylonitrile (PAN) and were 0.5-1.5 square meters in surface area.
For this membrane separation process, solutions are recirculated at 100-900 ml/min. The feedstock reservoir volume is between 0.5 L and 8.0 L of aqueous solution which is 0.1-10.0% dissolved base, e.g., pyridine or nicotine, at a pH between 4 and 10. The feedstock solution can also contain other compounds, e.g., tobacco components. The organic solvent (OS) reservoir contains from 300-1000 mL of a water-immiscible solvent like hexane, heptane, octane, nonane, decane or Isopar K (Exxon) to which is added 0.1-10.0% of LIX. The OS is recirculated in the center panel through the lumen of both membrane modules and is always kept at 2-10 psi higher than the aqueous phases to maintain phase separation. The aqueous recovery solution is maintained at a constant pH (1.0-4.0) via an automatic titration unit (Metrohm Model 665 Dosimat with Model 614 Impulsomat and Model 632 Digital-pH-Meter, Metrohm Ltd., CH-9100 Herisau, Switzerland) using 1.0 M sulfuric acid to provide a pH differential and as a collection sink for the base being transferred, e.g., pyridine or nicotine.
Seven consecutive runs were performed with the apparatus outlined in Example XII without the use of a LIX in the OS, changing to a fresh 1 liter 0.32% nicotine FS each run and leaving the RS alone to concentrate the nicotine recovered (Section A). Prior to run 8, fresh FS, OS and RS solutions were placed within the system. For the five consecutive runs 8-12, 2% LIX (Example X) in Isopar K was used as the OS, 0.32% nicotine in deionized water for FS (one liter fresh for each run), and a fresh deionized water RS was left in place for all five runs to concentrate the nicotine (Section B). The volume of the RS increased during the runs 8-12 because the nicotine was transferred into it and because acid solution was pumped into it to maintain a pH of ca. 3. Then three additional runs 13-15 were made using the same OS and the same RS (to form a more concentrated nicotine solution) from Section B; 4 L FS solutions of 0.32% nicotine in deionized water (a fresh solution each run) were used (Section C). […] The OS continues to operate without replacement.

The conditions of data set [3]: 180 min; 5% LIX, 20 mM nicotine, 4 L FS; ND = None detected.
Text: as §1
For this membrane separation process, solutions are recirculated at 100-900 ml/min. The feedstock reservoir volume is between 0.5 L and 8.0 L of aqueous solution which is 0.1-10.0% dissolved base, e.g., pyridine or nicotine, at a pH between 4 and 10. […]

Consider `CCCCC(CC)COC(=O)[C@H](OC(C)=O)[C@@H](OC(C)=O)C(=O)O` (mixture of isomers) [Example III, (2R, 3R, 2'R)- and (2R, 3R, 2'S)-Mono(2'-Ethylhexyl) 2,3-Bis(acetyloxy)butanedioate], for which, in data set [1], the “partition coefficient compared with no LIX present” value was “less than without any LIX present” and the “solubility of the nicotine-LIX complex” value is on record as “more water soluble than hexane soluble”.
On to `CCCCC(CC)COC(=O)[C@H](OC(=O)CC)[C@@H](OC(=O)CC)C(=O)O` (mixture of isomers) [Example V, (2R, 3R, 2'R)- and (2R, 3R, 2'S)-Mono(2'-Ethylhexyl) 2,3-Bis(propionyloxy)butanedioate], for which, in data set [1], the “partition coefficient compared with no LIX present” value is “less than without any LIX present” and the “solubility of the nicotine-LIX complex” value is “more water soluble than hexane soluble”.
With `CCCCC(CC)COC(=O)[C@H](OC(=O)C(CC)CCCC)[C@@H](OC(=O)C(CC)CCCC)C(=O)O` (stereo partly drawn) [Example X, (2R, 3R, 2'.xi., 2''.xi., 2'''.xi.)-Mono(2'-Ethylhexyl) 2,3-Bis(2-ethylhexanoyloxy)butanedioate], the “Percent (%) nicotine remaining in FS” value in data set [2] (Section B, 0 min, 1 liter FS at 0.32% nicotine) is 100%; in data set [2] (Section B, 15 min, 1 liter FS at 0.32% nicotine) it was 49% and 50%; in data set [2] (Section B, 30 min, 1 liter FS at 0.32% nicotine), 37% and 36% and 35%; in data set [2] (Section B, 45 min, 1 liter FS at 0.32% nicotine) it was 23% and 24%; in data set [2] (Section B, 60 min, 1 liter FS at 0.32% nicotine), 14% and 13%; in data set [2] (Section C, 0 min, 4 liters FS at 0.32% nicotine), 100%. Moreover, the “Percent (%) nicotine remaining in FS” value in data set [2] (Section C, 60 min, 4 liters FS at 0.32% nicotine) is 51%; in data set [2] (Section C, 120 min, 4 liters FS at 0.32% nicotine) it was 35% and 37%; in data set [2] (Section C, 180 min, 4 liters FS at 0.32% nicotine) it was 21% and 23%; in data set [2] (Section C, 240 min, 4 liters FS at 0.32% nicotine), 13%. In addition, in data set [3], the “Percent (%) remaining in FS” value is 10.0%.
